The results in this text go back to US8513229B2, “4-Azetidinyl-1-phenyl-cyclohexane antagonists of CCR2” (Janssen Pharmaceutica NV, priority 2009, dated 2013).

The assay concerns the target T1, CCR2 (Homo sapiens, UniProt P41597).
T1 construct: host or cells: THP-1 human monocytic cells
T1 sequence (P41597 1-360 isoform P41597-2): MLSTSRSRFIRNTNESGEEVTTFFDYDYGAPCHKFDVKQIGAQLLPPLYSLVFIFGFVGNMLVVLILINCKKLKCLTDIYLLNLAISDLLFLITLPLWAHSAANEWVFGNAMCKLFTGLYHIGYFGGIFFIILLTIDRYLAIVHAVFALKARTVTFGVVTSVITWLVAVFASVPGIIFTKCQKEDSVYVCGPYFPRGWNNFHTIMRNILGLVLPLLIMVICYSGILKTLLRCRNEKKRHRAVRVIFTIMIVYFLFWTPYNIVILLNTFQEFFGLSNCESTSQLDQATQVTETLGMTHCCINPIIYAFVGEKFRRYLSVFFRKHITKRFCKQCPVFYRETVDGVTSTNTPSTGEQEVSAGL
The assay is described as follows: MCP-1 Receptor Binding Assay in THP-1 Cells. The conditions noted are these: 0.5 nM 125I labeled MCP-1, 2 hours at 30° C., read-out: Inhibition of MCP-1 Binding IC50 CCR2 Binding. How it is done: MCP-1 Receptor Binding Assay in THP-1 Cells
Human monocytic cell line THP-1 cells were obtained from American Type Culture Collection (Manassas, Va., USA). […] The cell density was maintained […].
1 μM cold MCP-1 was used for nonspecific binding.
The IC50 is the midpoint of a concentration-inhibition curve. Turning to `O=C(CNC(=O)c1cccc(C(F)(F)F)c1)NC1CN(C2CCC(c3ccc4c(c3)OCO4)CC2)C1` (single isomer, unassigned) [Example 1a, N-{[1-(4-Benzo[1,3]dioxol-5-yl-cyclohexyl)-azetidin-3-ylcarbamoyl]-methyl}-3-trifluoromethyl-benzamide], the IC50 came out at 1.2 nM.
For the compound `O=C(CNC(=O)c1ccccc1)NC1CN(C2CCC(c3ccc4c(c3)OCO4)CC2)C1` (single isomer, unassigned) [Example 2a, N-{[1-(4-Benzo[1,3]dioxol-5-yl-cyclohexyl)-azetidin-3-ylcarbamoyl]-methyl}-benzamide], the half-maximal inhibitory concentration (IC50) stood at 390 nM.
`O=C(CNC(=O)c1cccc(C(F)(F)F)c1)NC1CN(C2CCC(c3ccc4c(c3)OCC4)CC2)C1` (single isomer, unassigned) [Example 3a, N-({1-[4-(2,3-Dihydro-benzofuran-6-yl)-cyclohexyl]-azetidin-3-ylcarbamoyl}-methyl)-3-trifluoromethylbenzamide]: the IC50 was 45 nM.
For the compound `O=C(CNC(=O)c1cccc(C(F)(F)F)c1)NC1CN(C2CCC(c3ccccc3)CC2)C1` (single isomer, unassigned) [Example 4a, N-{[1-(4-Phenyl-cyclohexyl)-azetidin-3-ylcarbamoyl]-methyl}-3-trifluoromethyl-benzamide], the IC50 is 33 nM.
For the compound `O=C(CNC(=O)c1cccc(C(F)(F)F)c1)NC1CN(C2CCC(c3ccc4oc(=O)[nH]c4c3)CC2)C1` (single isomer, unassigned) [Example 5a, N-({1-[4-(2-oxo-2,3-dihydro-benzooxazol-5-yl)-cyclohexyl]-azetidin-3-ylcarbamoyl}-methyl)-3-trifluoromethyl-benzamide], the half-maximal inhibitory concentration (IC50) came to 9 nM.
With `O=C(CNC(=O)c1cccc(C(F)(F)F)c1)NC1CN(C2CCC(c3ccc4sc(=O)[nH]c4c3)CC2)C1` (single isomer, unassigned) [Example 6a, N-({1-[4-(2-Oxo-2,3-dihydro-benzothiazol-5-yl)-cyclohexyl]-azetidin-3-ylcarbamoyl}-methyl)-3-trifluoromethyl-benzamide], the half-maximal inhibitory concentration (IC50) was determined as 200 nM.
Turning to `COc1ccc(C2CCC(N3CC(NC(=O)CNC(=O)c4cccc(C(F)(F)F)c4)C3)CC2)cc1` (single isomer, unassigned) [Example 7a, N-({1-[4-(4-Methoxy-phenyl)-cyclohexyl]-azetidin-3-ylcarbamoyl}-methyl)-3-trifluoromethyl-benzamide], the IC50 was 50 nM.
With `N#Cc1cccc(C2CCC(N3CC(NC(=O)CNC(=O)c4cccc(C(F)(F)F)c4)C3)CC2)c1` (single isomer, unassigned) [Example 8a, N-({1-[4-(3-Cyano-phenyl)-cyclohexyl]-azetidin-3-ylcarbamoyl}-methyl)-3-trifluoromethyl-benzamide], the IC50 is 85 nM.
Regarding `CCOC(=O)c1cccc(C2CCC(N3CC(NC(=O)CNC(=O)c4cccc(C(F)(F)F)c4)C3)CC2)c1` (single isomer, unassigned) [Example 11a, 3-(4-{3-[2-(3-Trifluoromethyl-benzoylamino)-acetylamino]-azetidin-1-yl}-cyclohexyl)-benzoic acid ethyl ester], the IC50 was 135 nM.
`CS(=O)(=O)c1cccc(C2CCC(N3CC(NC(=O)CNC(=O)c4cccc(C(F)(F)F)c4)C3)CC2)c1` (single isomer, unassigned) [Example 14a, N-({1-[4-(3-Methanesulfonyl-phenyl)-cyclohexyl]-azetidin-3-ylcarbamoyl}-methyl)-3-trifluoromethyl-benzamide]: the concentration for half-maximal inhibition (IC50) stood at 440 nM.
Consider `O=C(CNC(=O)c1cccc(C(F)(F)F)c1)NC1CN(C2CCC(c3ccc4nc[nH]c4c3)CC2)C1` (single isomer, unassigned) [Example 20a, N-({1-[4-(3H-Benzoimidazol-5-yl)-cyclohexyl]-azetidin-3-ylcarbamoyl}-methyl)-3-trifluoromethyl-benzamide], for which the IC50 was determined as 27 nM.
Turning to `N#CCc1ccc(C2CCC(N3CC(NC(=O)CNC(=O)c4cccc(C(F)(F)F)c4)C3)CC2)cc1` (single isomer, unassigned) [Example 21a, N-({1-[4-(4-Cyanomethyl-phenyl)-cyclohexyl]-azetidin-3-ylcarbamoyl}-methyl)-3-trifluoromethyl-benzamide], the half-maximal inhibitory concentration (IC50) stood at 30 nM.
As for `CCOC(=O)Cc1ccc(C2CCC(N3CC(NC(=O)CNC(=O)c4cccc(C(F)(F)F)c4)C3)CC2)cc1` (single isomer, unassigned) [Example 24a, [4-(4-{3-[2-(3-Trifluoromethyl-benzoylamino)-acetylamino]-azetidin-1-yl}-cyclohexyl)-phenyl]-acetic acid ethyl ester], the 50% inhibitory concentration (IC50) amounted to 340 nM.
In the case of `O=C(CNC(=O)c1cccc(C(F)(F)F)c1)NC1CN(C2CCC(O)(c3ccc4c(c3)OCO4)CC2)C1` (single isomer, unassigned) [Example 31a, N-{[1-(4-Benzo[1,3]dioxol-5-yl-4-hydroxy-cyclohexyl)-azetidin-3-ylcarbamoyl]-methyl}-3-trifluoromethyl-benzamide] it was 46 nM.
For `O=C(CNC(=O)c1cccc(C(F)(F)F)c1)NC1CN(C2CCC(O)(c3ccc4c(c3)OCCO4)CC2)C1` (single isomer, unassigned) [Example 32a, N-({1-[4-(2,3-Dihydro-benzo[1,4]dioxin-6-yl)-4-hydroxy-cyclohexyl]-azetidin-3-ylcarbamoyl}-methyl)-3-trifluoromethyl-benzamide], the IC50 amounted to 63 nM.
With `O=C(CNC(=O)c1cccc(C(F)(F)F)c1)NC1CN(C2CCC(O)(c3ccc4c(c3)OCC4)CC2)C1` (single isomer, unassigned) [Example 33a, N-({1-[4-(2,3-Dihydro-benzofuran-6-yl)-4-hydroxy-cyclohexyl]-azetidin-3-ylcarbamoyl}-methyl)-3-trifluoromethyl-benzamide], the IC50 was determined as 25 nM.
As to `O=C(CNC(=O)c1cccc(C(F)(F)F)c1)NC1CN(C2CCC(O)(c3ccc4nc[nH]c4c3)CC2)C1` (single isomer, unassigned) [Example 34a, N-({1-[4-(3H-Benzoimidazol-5-yl)-4-hydroxy-cyclohexyl]-azetidin-3-ylcarbamoyl}-methyl)-3-trifluoromethyl-benzamide], the half-maximal inhibitory concentration (IC50) came to 310 nM.
Take `O=C(CNC(=O)c1cccc(C(F)(F)F)c1)NC1CN(C2CCC(O)(c3ccc4oc(=O)[nH]c4c3)CC2)C1` (single isomer, unassigned) [Example 35a, N-({1-[4-Hydroxy-4-(2-oxo-2,3-dihydro-benzooxazol-5-yl)-cyclohexyl]-azetidin-3-ylcarbamoyl}-methyl)-3-trifluoromethyl-benzamide]: the IC50 turned out to be 190 nM.
Turning to `COc1ccc(C2(O)CCC(N3CC(NC(=O)CNC(=O)c4cccc(C(F)(F)F)c4)C3)CC2)cc1` (single isomer, unassigned) [Example 36a, N-({1-[4-Hydroxy-4-(4-methoxy-phenyl)-cyclohexyl]-azetidin-3-ylcarbamoyl}-methyl)-3-trifluoromethyl-benzamide], the half-maximal inhibitory concentration (IC50) stood at 21 nM.
With `COc1cccc(C2(O)CCC(N3CC(NC(=O)CNC(=O)c4cccc(C(F)(F)F)c4)C3)CC2)c1` (single isomer, unassigned) [Example 37a, N-({1-[4-Hydroxy-4-(3-methoxy-phenyl)-cyclohexyl]-azetidin-3-ylcarbamoyl}-methyl)-3-trifluoromethyl-benzamide], the IC50 is 69 nM.
Turning to `CSc1cccc(C2(O)CCC(N3CC(NC(=O)CNC(=O)c4cccc(C(F)(F)F)c4)C3)CC2)c1` (single isomer, unassigned) [Example 38a, N-({1-[4-Hydroxy-4-(3-methylsulfanyl-phenyl)-cyclohexyl]-azetidin-3-ylcarbamoyl}-methyl)-3-trifluoromethyl-benzamide], the IC50 turned out to be 190 nM.
For the compound `O=C(CNC(=O)c1cccc(C(F)(F)F)c1)NC1CN(C2CCC(c3ccc(O)cc3)CC2)C1` (single isomer, unassigned) [Example 40a, N-({1-[4-(4-Hydroxy-phenyl)-cyclohexyl]-azetidin-3-ylcarbamoyl}-methyl)-3-trifluoromethyl-benzamide], the half-maximal inhibitory concentration (IC50) was found to be 21 nM.
As for `O=C(CNC(=O)c1cccc(C(F)(F)F)c1)NC1CN(C2CCC(O)(c3cccc(O)c3)CC2)C1` (single isomer, unassigned) [Example 46a, N-({1-[4-Hydroxy-4-(3-hydroxy-phenyl)-cyclohexyl]-azetidin-3-ylcarbamoyl}-methyl)-3-trifluoromethyl-benzamide], the IC50 was 110 nM.
In the case of `O=C(CNC(=O)c1cccc(C(F)(F)F)c1)NC1CN(C2CCC(O)(c3ccc(F)cc3)CC2)C1` (single isomer, unassigned) [Example 47a, N-({1-[4-(4-Fluoro-phenyl)-4-hydroxy-cyclohexyl]-azetidin-3-ylcarbamoyl}-methyl)-3-trifluoromethyl-benzamide], the IC50 amounted to 206 nM.
Consider `N#Cc1cccc(C2(O)CCC(N3CC(NC(=O)CNC(=O)c4cccc(C(F)(F)F)c4)C3)CC2)c1` (single isomer, unassigned) [Example 48a, N-({1-[4-(3-Cyano-phenyl)-4-hydroxy-cyclohexyl]-azetidin-3-ylcarbamoyl}-methyl)-3-trifluoromethyl-benzamide], for which the IC50 was 413 nM.
`C#Cc1cccc(C2(O)CCC(N3CC(NC(=O)CNC(=O)c4cccc(C(F)(F)F)c4)C3)CC2)c1` (single isomer, unassigned) [Example 51a, N-({1-[4-(3-Ethynyl-phenyl)-4-hydroxy-cyclohexyl]-azetidin-3-ylcarbamoyl}-methyl)-3-trifluoromethyl-benzamide]: the IC50 is 228 nM.
